# EP0908457B1, “3-(1,2-benzisothiazol- and isoxazol-5-Y1)-2,4(1H,3H)-pyrimidinedione or thione and 3-(1,2-benzisothiazol- and isoxazol-5-y1)-4(3H)-pyrimidinone or thione herbicidal agents” (BASF AKTIENGESELLSCHAFT, priority 1997, dated 1999)
# Key:
# [1] = tested on: Echinochloa oryzoides (Ard.) Fritsch.; experiment: Preemergence weed control under flooded paddy conditions, ECHORC (Watergrass (Calif.)); assay type: in vivo; conditions: flooded paddy, rated three to four weeks after treatment; for herbicidal effect rating, ECHORC: meaning of each grade not given here
# [2] = tested on: Oryza sativa, (L.) Tebonnet; experiment: Rice tolerance to post-transplant applications under flooded paddy conditions (Example 187), ORYSAT (Rice, Tebonnet); conditions: rated three to four weeks after treatment
# [3] = tested on: Cyperus serotinus, Rottb.; experiment: Preemergence weed control under flooded paddy conditions, CYPSE (Flatsedge); assay type: in vivo; conditions: rated three to four weeks after treatment; for herbicidal effect rating, CYPSE: meaning of each grade not given here
# [4] = tested on: Sagittaria pygmaea, L.; experiment: Preemergence weed control under flooded paddy conditions, SAGPY (Arrowhead (Pygmaea)); assay type: in vivo; conditions: flooded paddy, rated three to four weeks after treatment; for herbicidal effect rating, SAGPY: meaning of each grade not given here
# [5] = tested on: Cyperus iria; experiment: Preemergence weed control under flooded paddy conditions, CYPIR (Rice Flatsedge); assay type: in vivo; conditions: flooded paddy, rated three to four weeks after treatment; for herbicidal effect rating, CYPIR: meaning of each grade not given here
# [6] = tested on: Monochoria vaginalis, Presl.; experiment: Preemergence weed control under flooded paddy conditions, MOOVA (Monochoria); assay type: in vivo; conditions: flooded paddy, rated three to four weeks after treatment; for herbicidal effect rating, MOOVA: meaning of each grade not given here
# [7] = Rate 0.0320 kg/ha, preemergence weeds
# [8] = Rate 0.0620 kg/ha, preemergence weeds
# [9] = Rate 0.1250 kg/ha, preemergence weeds
# [10] = Rate 0.2500 kg/ha, preemergence weeds
# [11] = Rate 0.0320 kg/ha, preemergence
# [12] = Rate 0.0620 kg/ha, preemergence
# [13] = Rate 0.1250 kg/ha, preemergence
# [14] = Rate 0.2500 kg/ha, preemergence
# [15] = Rate 0.5000 kg/ha, preemergence
smiles,measurement,setting,value
"Cn1c(C(F)(F)F)cc(=O)n(-c2ccc3snc(-c4ccccc4OCC(=O)O)c3c2)c1=O [Example 312, Acetic acid, {o-{5-[3,6-dihydro-3-methyl-2,6-dioxo-4-(trifluoromethyl)-1(2H)-pyrimidinyl]-1,2-benzisothiazol-3-yl}phenoxy}-]","herbicidal effect rating, ECHORC",[1]; [7],6.0
same,"herbicidal effect rating, ECHORC",[1]; [8],6.5
same,"herbicidal effect rating, ECHORC",[1]; [9],9.0
same,"herbicidal effect rating, ECHORC",[1]; [10],9.0
same,herbicidal effect rating ORYSAT,[2]; Rate 0.0320 kg/ha,5.0
same,herbicidal effect rating ORYSAT,[2]; Rate 0.0620 kg/ha,6.5
same,herbicidal effect rating ORYSAT,[2]; Rate 0.1250 kg/ha,7.0
same,herbicidal effect rating ORYSAT,[2]; Rate 0.2500 kg/ha,7.5
same,"herbicidal effect rating, CYPSE",[3]; [7],0.0
same,"herbicidal effect rating, CYPSE",[3]; [8],3.5
same,"herbicidal effect rating, CYPSE",[3]; [9],4.5
same,"herbicidal effect rating, CYPSE",[3]; [10],6.0
same,"herbicidal effect rating, SAGPY",[4]; [7],0.0
same,"herbicidal effect rating, SAGPY",[4]; [8],2.0
same,"herbicidal effect rating, SAGPY",[4]; [9],5.5
same,"herbicidal effect rating, SAGPY",[4]; [10],6.5
same,"herbicidal effect rating, CYPIR",[5]; [7],4.5
same,"herbicidal effect rating, CYPIR",[5]; [8],6.5
same,"herbicidal effect rating, CYPIR",[5]; [9],9.0
same,"herbicidal effect rating, CYPIR",[5]; [10],9.0
same,"herbicidal effect rating, MOOVA",[6]; [7],4.5
same,"herbicidal effect rating, MOOVA",[6]; [8],6.0
same,"herbicidal effect rating, MOOVA",[6]; [9],9.0
same,"herbicidal effect rating, MOOVA",[6]; [10],9.0
"Cc1ccc(CS(=O)(=O)NC(=O)c2nsc3ccc(-n4c(=O)cc(C(F)(F)F)n(C)c4=O)cc23)cc1 [Example 464, 1,2-Benzisothiazole-3-carboxamide, 5-[3,6-dihydro-3-methyl-2,6-dioxo-4-(trifluoromethyl)-1(2H)-pyrimidinyl]-N-[(p-methylbenzyl)sulfonyl]-]",ECHORC herbicidal rating,"[1]; 0.0320 kg/ha, preemergence",6.0
same,ECHORC herbicidal rating,"[1]; 0.1250 kg/ha, preemergence",6.0
same,ECHORC herbicidal rating,"[1]; 0.2500 kg/ha, preemergence",9.0
same,ORYSAT herbicidal rating (rice tolerance),[2]; 0.0320 kg/ha,0.0
same,ORYSAT herbicidal rating (rice tolerance),[2]; 0.0620 kg/ha,2.0
same,ORYSAT herbicidal rating (rice tolerance),[2]; 0.1250 kg/ha,2.0
same,ORYSAT herbicidal rating (rice tolerance),[2]; 0.2500 kg/ha,4.0
same,CYPSE herbicidal rating,"[3]; 0.0320 kg/ha, preemergence",0.0
same,CYPSE herbicidal rating,"[3]; 0.0620 kg/ha, preemergence",0.0
same,CYPSE herbicidal rating,"[3]; 0.1250 kg/ha, preemergence",0.0
same,CYPSE herbicidal rating,"[3]; 0.2500 kg/ha, preemergence",7.0
same,SAGPY herbicidal rating,"[4]; 0.0320 kg/ha, preemergence",0.0
same,SAGPY herbicidal rating,"[4]; 0.0620 kg/ha, preemergence",0.0
same,SAGPY herbicidal rating,"[4]; 0.1250 kg/ha, preemergence",6.0
same,SAGPY herbicidal rating,"[4]; 0.2500 kg/ha, preemergence",4.0
same,CYPIR herbicidal rating,"[5]; 0.0320 kg/ha, preemergence",0.0
same,CYPIR herbicidal rating,"[5]; 0.0620 kg/ha, preemergence",3.0
same,CYPIR herbicidal rating,"[5]; 0.1250 kg/ha, preemergence",3.0
same,CYPIR herbicidal rating,"[5]; 0.2500 kg/ha, preemergence",5.0
same,MOOVA herbicidal rating,"[6]; 0.0320 kg/ha, preemergence",7.0
same,MOOVA herbicidal rating,"[6]; 0.0620 kg/ha, preemergence",9.0
same,MOOVA herbicidal rating,"[6]; 0.1250 kg/ha, preemergence",9.0
same,MOOVA herbicidal rating,"[6]; 0.2500 kg/ha, preemergence",6.0
"C=Cc1nsc2ccc(-n3c(=O)cc(C(F)(F)F)n(C)c3=O)cc12 [Example 276, 2,4(1H,3H)-Pyrimidinedione, 1-methyl-6-(trifluoromethyl)-3-(3-vinyl-1,2-benzisothiazol-5-yl)-]",ECHORC herbicidal effect rating,[1]; [11],4.0
same,ECHORC herbicidal effect rating,[1]; [12],7.7
same,ECHORC herbicidal effect rating,[1]; [13],7.9
same,ECHORC herbicidal effect rating,[1]; [14],9.0
same,ECHORC herbicidal effect rating,[1]; [15],9.0
same,ORYSAT herbicidal effect rating,[2]; Rate 0.0320 kg/ha,4.0
same,ORYSAT herbicidal effect rating,[2]; Rate 0.0620 kg/ha,5.0
same,ORYSAT herbicidal effect rating,[2]; Rate 0.1250 kg/ha,6.0
same,ORYSAT herbicidal effect rating,[2]; Rate 0.2500 kg/ha,7.0
same,ORYSAT herbicidal effect rating,[2]; Rate 0.5000 kg/ha,9.0
same,CYPSE herbicidal effect rating,[3]; [11],2.0
same,CYPSE herbicidal effect rating,[3]; [12],2.0
same,CYPSE herbicidal effect rating,[3]; [13],8.0
same,CYPSE herbicidal effect rating,[3]; [14],7.0
same,CYPSE herbicidal effect rating,[3]; [15],7.0
same,SAGPY herbicidal effect rating,[4]; [11],8.0
same,SAGPY herbicidal effect rating,[4]; [12],9.0
same,SAGPY herbicidal effect rating,[4]; [13],9.0
same,SAGPY herbicidal effect rating,[4]; [14],9.0
same,SAGPY herbicidal effect rating,[4]; [15],9.0
same,CYPIR herbicidal effect rating,[5]; [11],8.0
same,CYPIR herbicidal effect rating,[5]; [12],9.0
same,CYPIR herbicidal effect rating,[5]; [13],9.0
same,CYPIR herbicidal effect rating,[5]; [14],9.0
same,CYPIR herbicidal effect rating,[5]; [15],9.0
same,MOOVA herbicidal effect rating,[6]; [11],9.0
same,MOOVA herbicidal effect rating,[6]; [12],9.0
same,MOOVA herbicidal effect rating,[6]; [13],9.0
same,MOOVA herbicidal effect rating,[6]; [14],9.0
same,MOOVA herbicidal effect rating,[6]; [15],9.0
"Cn1c(C(F)(F)F)cc(=O)n(-c2ccc3snc(C(C#N)=Cc4ccco4)c3c2)c1=O [Example 594, 1,2-Benzisothiazole-3-acetonitrile, 5-[3,6-dihydro-3-methyl-2,6-dioxo-4-(trifluoromethyl)-1(2H)-pyrimidinyl]-alpha-furfurylidene-]","herbicidal effect rating, ECHORC",[1]; [11],3.0
same,"herbicidal effect rating, ECHORC",[1]; [12],5.0
same,"herbicidal effect rating, ECHORC",[1]; [13],6.0
same,"herbicidal effect rating, ECHORC",[1]; [14],7.0
same,herbicidal effect rating ORYSAT,[2]; Rate 0.0320 kg/ha,1.0
same,herbicidal effect rating ORYSAT,[2]; Rate 0.0620 kg/ha,2.0
same,herbicidal effect rating ORYSAT,[2]; Rate 0.1250 kg/ha,2.0
same,herbicidal effect rating ORYSAT,[2]; Rate 0.2500 kg/ha,3.0
same,"herbicidal effect rating, CYPSE",[3]; [11],0.0
same,"herbicidal effect rating, SAGPY",[4]; [11],2.0
same,"herbicidal effect rating, SAGPY",[4]; [12],4.0
same,"herbicidal effect rating, SAGPY",[4]; [13],5.0
same,"herbicidal effect rating, CYPIR",[5]; [11],3.0
same,"herbicidal effect rating, CYPIR",[5]; [12],5.0
same,"herbicidal effect rating, CYPIR",[5]; [13],5.0
same,"herbicidal effect rating, CYPIR",[5]; [14],9.0
same,"herbicidal effect rating, MOOVA",[6]; [11],6.0
same,"herbicidal effect rating, MOOVA",[6]; [12],7.0
same,"herbicidal effect rating, MOOVA",[6]; [13],9.0
same,"herbicidal effect rating, MOOVA",[6]; [14],9.0
"CCc1ccc(OC(C)C(=O)OC)c(-c2nsc3ccc(-n4c(=O)cc(C(F)(F)F)n(C)c4=O)cc23)c1 (centres unmarked) [Example 28, Methyl 2-{2-{5-[3,6-dihydro-3-methyl-2,6-dioxo-4-(trifluoromethyl)-1(2H)-pyrimidinyl]-1,2-benzisothiazol-3-yl}-4-ethylphenoxy}propionate]","herbicidal effect rating, ECHORC","[1]; 0.0313 kg/ha, preemergence",8.0
same,"herbicidal effect rating, ECHORC","[1]; 0.0625 kg/ha, preemergence",9.0
same,"herbicidal effect rating, ECHORC","[1]; 0.1250 kg/ha, preemergence",9.0
same,"herbicidal effect rating, ECHORC","[1]; 0.2500 kg/ha, preemergence",9.0
same,"herbicidal effect rating, ORYSAT (rice tolerance)",[2]; 0.0313 kg/ha,3.0
same,"herbicidal effect rating, ORYSAT (rice tolerance)",[2]; 0.0625 kg/ha,4.0
same,"herbicidal effect rating, ORYSAT (rice tolerance)",[2]; 0.1250 kg/ha,7.0
same,"herbicidal effect rating, ORYSAT (rice tolerance)",[2]; 0.2500 kg/ha,9.0
same,"herbicidal effect rating, CYPSE","[3]; 0.0313 kg/ha, preemergence",0.0
same,"herbicidal effect rating, CYPSE","[3]; 0.0625 kg/ha, preemergence",0.0
same,"herbicidal effect rating, CYPSE","[3]; 0.1250 kg/ha, preemergence",0.0
same,"herbicidal effect rating, CYPSE","[3]; 0.2500 kg/ha, preemergence",4.0
same,"herbicidal effect rating, SAGPY","[4]; 0.0313 kg/ha, preemergence",0.0
same,"herbicidal effect rating, SAGPY","[4]; 0.0625 kg/ha, preemergence",2.0
same,"herbicidal effect rating, SAGPY","[4]; 0.1250 kg/ha, preemergence",4.0
same,"herbicidal effect rating, SAGPY","[4]; 0.2500 kg/ha, preemergence",8.0
same,"herbicidal effect rating, CYPIR","[5]; 0.0313 kg/ha, preemergence",2.0
same,"herbicidal effect rating, CYPIR","[5]; 0.0625 kg/ha, preemergence",4.0
same,"herbicidal effect rating, CYPIR","[5]; 0.1250 kg/ha, preemergence",6.0
same,"herbicidal effect rating, CYPIR","[5]; 0.2500 kg/ha, preemergence",9.0
same,"herbicidal effect rating, MOOVA","[6]; 0.0313 kg/ha, preemergence",8.0
same,"herbicidal effect rating, MOOVA","[6]; 0.0625 kg/ha, preemergence",9.0
same,"herbicidal effect rating, MOOVA","[6]; 0.1250 kg/ha, preemergence",9.0
same,"herbicidal effect rating, MOOVA","[6]; 0.2500 kg/ha, preemergence",9.0
"Cc1cccc(CS(=O)(=O)NC(=O)c2nsc3ccc(-n4c(=O)cc(C(F)(F)F)n(C)c4=O)cc23)c1 [Example 483, 1,2-Benzisothiazole-3-carboxamide, 5-[3,6-dihydro-3-methyl-2,6-dioxo-4-(trifluoromethyl)-1(2H)-pyrimidinyl]-N-[(m-methylbenzyl)sulfonyl]-]",ECHORC herbicidal rating,"[1]; 0.0320 kg/ha, preemergence",6.0
same,ECHORC herbicidal rating,"[1]; 0.0620 kg/ha, preemergence",7.0
same,ECHORC herbicidal rating,"[1]; 0.1250 kg/ha, preemergence",7.0
same,ECHORC herbicidal rating,"[1]; 0.2500 kg/ha, preemergence",7.0
same,ORYSAT herbicidal rating (rice tolerance),[2]; 0.0320 kg/ha,3.0
same,ORYSAT herbicidal rating (rice tolerance),[2]; 0.0620 kg/ha,3.0
same,ORYSAT herbicidal rating (rice tolerance),[2]; 0.1250 kg/ha,5.0
same,ORYSAT herbicidal rating (rice tolerance),[2]; 0.2500 kg/ha,6.0
same,CYPSE herbicidal rating,"[3]; 0.0620 kg/ha, preemergence",4.0
same,CYPSE herbicidal rating,"[3]; 0.2500 kg/ha, preemergence",6.0
same,SAGPY herbicidal rating,"[4]; 0.0320 kg/ha, preemergence",0.0
same,SAGPY herbicidal rating,"[4]; 0.0620 kg/ha, preemergence",0.0
same,SAGPY herbicidal rating,"[4]; 0.1250 kg/ha, preemergence",3.0
same,SAGPY herbicidal rating,"[4]; 0.2500 kg/ha, preemergence",5.0
same,CYPIR herbicidal rating,"[5]; 0.0320 kg/ha, preemergence",0.0
same,CYPIR herbicidal rating,"[5]; 0.0620 kg/ha, preemergence",2.0
same,CYPIR herbicidal rating,"[5]; 0.1250 kg/ha, preemergence",5.0
same,CYPIR herbicidal rating,"[5]; 0.2500 kg/ha, preemergence",6.0
same,MOOVA herbicidal rating,"[6]; 0.0320 kg/ha, preemergence",7.0
same,MOOVA herbicidal rating,"[6]; 0.0620 kg/ha, preemergence",9.0
same,MOOVA herbicidal rating,"[6]; 0.1250 kg/ha, preemergence",9.0
same,MOOVA herbicidal rating,"[6]; 0.2500 kg/ha, preemergence",9.0
